US20260285871A1, “Polymorphic Compounds and Uses Thereof” (TYRA BIOSCIENCES, INC., priority 2022, published 2026)

Experiment: Crystallization (polymorph) studies of compound A free base: fast/slow evaporation, slurry at 25° C., anti-solvent addition, vapor diffusion; solids analysed by XRPD
Format: physicochemical
Conditions: for FE: fast evaporative crystallization; for Results from Slow Evaporation Crystallization Experiments: slow evaporation at room temperature; for Slurry: slurry at 25° C., three days
Experimental: (§1) I. Fast Evaporative Crystallization Method (FE): compound A (ca. 30 mg) was dissolved in minimum quantity the stated solvent while heating at 80° C. The resulted solutions were filtered using a 0.45 μm PTFE syringe filter and the filtrate was collected. The filtrate was evaporated using a rotavap.
as §1, with “II. Slow” for “I. Fast”, “(SE):” for “(FE):”, “covered with perforated aluminum foil and left to evaporate at ambient temperature.” for “evaporated using a rotavap.”
III. Slurry Crystallization at 25° C. using Form I of compound A: compound A (ca. 100 mg) was suspended in minimum quantity the stated solvent. The resulted slurries were allowed to stir at 25° C. for three days.
IV. Anti-Solvent Addition Crystallization: compound A (ca. 50 mg) was dissolved in solubilizing solvent. To that solution 200 μL anti-solvent was added slowly. These iterations were continued until the precipitation observed or maximum solvent quantity of ~25 mL. Many solvents were used as the solubilizing solvent in these experiments. Selection of anti-solvent for each solubilizing solvent is based on the miscibility between them.
V. Vapor Diffusion Crystallization: compound A (ca. 30 mg) was dissolved in solubilizing solvent and kept in a small (8 mL) vial. These vials were kept in a larger vial (40 mL) that had 15 mL anti-solvents and closed the vial cap to allow vapor diffusion between them. Many solvents were used as the solubilizing solvent in these experiments. Selection of anti-solvent for each solubilizing solvent is based on the miscibility between them. All the experiments were kept in undisturbed laboratory bench and observed periodically to see if any crystals were grown during that time.
Compound A was slurred in respective solvents and stirred at 25° C. for three days. A total of five unique XRPD patterns were identified and designated as Form I, Form II, Form III, Form IV, and Form V.
Compound A was dissolved in a suitable solvent while heating up to 80° C. and the resultant solutions were allowed to slowly evaporate at room temperature (25° C.).
Compound A was dissolved in suitable solvents. To those solutions anti-solvents were added to obtain the solids. The solvent and anti-solvent selection was based on the solubility of compound A and also miscibility between them.

[1] = solvent 14DOX, anti-solvent DEE
[2] = solvent 14DOX, anti-solvent T-Butyl Methyl Ether
[3] = solvent CHCl3, anti-solvent 4-Me-2Pentanone
[4] = solvent CHCl3, anti-solvent DEE
[5] = solvent CHCl3, anti-solvent T-Butyl Methyl Ether
[6] = solvent DCM, anti-solvent 4-Me-2Pentanone
[7] = solvent DCM, anti-solvent T-Butyl Methyl Ether
[8] = solvent DMSO, anti-solvent Water
[9] = solvent EtOAc, anti-solvent 4-Me-2Pentanone
[10] = solvent EtOAc, anti-solvent DEE
[11] = solvent EtOAc, anti-solvent T-Butyl Methyl Ether
[12] = solvent EtOH, anti-solvent 4-Me-2Pentanone
[13] = solvent EtOH, anti-solvent T-Butyl Methyl Ether
[14] = solvent EtOH, anti-solvent Water
[15] = solvent IPA, anti-solvent 4-Me-2Pentanone
[16] = solvent IPA, anti-solvent T-Butyl Methyl Ether
[17] = solvent MeOH, anti-solvent 4-Me-2Pentanone
[18] = solvent MeOH, anti-solvent T-Butyl Methyl Ether
[19] = solvent MeOH, anti-solvent Water
[20] = solvent THF, anti-solvent 4-Me-2Pentanone
[21] = solvent THF, anti-solvent T-Butyl Methyl Ether
[22] = solvent THF, anti-solvent Water

Structure (SMILES): C[C@@H](Oc1ccc2[nH]nc(-c3ccc(N4CC5(C4)CN(S(C)(=O)=O)C5)nc3)c2c1)c1c(Cl)cncc1Cl [Compound A, 5-[(1R)-1-(3,5-dichloro-4-pyridyl)ethoxy]-3-[6-(2-methylsulfonyl-2,6-diazaspiro[3.3]heptan-6-yl)-3-pyridyl]-1H-indazole]
- FE (solvent 4-Me 2-Pentanone): Not Dissolved
- FE (solvent ACN): Form II
- FE (solvent Acetone): Form II
- FE (solvent CHCl3): Clear film
- FE (solvent DEE): Not Dissolved
- FE (solvent EtOAc): Form VIII
- FE (solvent EtOH): Form IV
- FE (solvent H2O): Not Dissolved
- FE (solvent IPA): Form IV
- FE (solvent MeOH): Form IV
- FE (solvent THF): Clear film
- FE (solvent tert-butyl methyl ether): Not Dissolved
- Results from Slow Evaporation Crystallization Experiments (solvent 1,2-Propdiol): Form IV
- Results from Slow Evaporation Crystallization Experiments (solvent 4-Me 2-Pentanone): Form I
- Results from Slow Evaporation Crystallization Experiments (solvent ACN): Form IV
- Results from Slow Evaporation Crystallization Experiments (solvent Acetone): Form IV and 5
- Results from Slow Evaporation Crystallization Experiments (solvent DCM): Form IV
- Results from Slow Evaporation Crystallization Experiments (solvent DEE): Form I
- Results from Slow Evaporation Crystallization Experiments (solvent DMF): Form IV
- Results from Slow Evaporation Crystallization Experiments (solvent DMSO): Form IV
- Results from Slow Evaporation Crystallization Experiments (solvent EtOAc): Form IV
- Results from Slow Evaporation Crystallization Experiments (solvent EtOH): Form IV
- Results from Slow Evaporation Crystallization Experiments (solvent Eth. Gly): Form IV
- Results from Slow Evaporation Crystallization Experiments (solvent H2O): Form I
- Results from Slow Evaporation Crystallization Experiments (solvent IPA): Form IV
- Results from Slow Evaporation Crystallization Experiments (solvent MeOH): Form II
- Results from Slow Evaporation Crystallization Experiments (solvent T-ButylMethEther): Form I
- Results from Slow Evaporation Crystallization Experiments (solvent THF): Form IV
- Slurry (solvent 1,2-Propdiol): Form I
- Slurry (solvent 4-Me 2-Pentanone): Form I
- Slurry (solvent 14DOX): Form VI
- Slurry (solvent ACN): Form III
- Slurry (solvent Acetone): Form II
- Slurry (solvent CHCl3): Form III
- Slurry (solvent DCM): Form II
- Slurry (solvent DEE): Form I
- Slurry (solvent DMF): Form VII
- Slurry (solvent EtOAc): Form I
- Slurry (solvent EtOH): Form I
- Slurry (solvent Eth. Gly): Form I
- Slurry (solvent H2O): Form I
- Slurry (solvent IPA): Form I
- Slurry (solvent MeOH): Form II
- Slurry (solvent T-ButylMethEther): Form I
- Slurry (solvent THF): Form III
- Results of Anti-Solvent Addition Studies (solvent 14DOX, anti-solvent 4-Me-2Pentanone): No XRPD -
- Results of Anti-Solvent Addition Studies [1]: Form II
- Results of Vapor Diffusion Studies [1]: Form VIII
- Results of Anti-Solvent Addition Studies [2]: Form I
- Results of Vapor Diffusion Studies [2]: Form VIII
- Results of Anti-Solvent Addition Studies (solvent 14DOX, anti-solvent Water): Form V
- Results of Anti-Solvent Addition Studies (solvent ACN, anti-solvent 4-Me-2Pentanone): No XRPD -
- Results of Anti-Solvent Addition Studies (solvent ACN, anti-solvent DEE): No XRPD -
- Results of Anti-Solvent Addition Studies (solvent ACN, anti-solvent T-Butyl Methyl Ether): Form IV
- Results of Anti-Solvent Addition Studies (solvent ACN, anti-solvent Water): Form V +
- Results of Anti-Solvent Addition Studies (solvent Acetone, anti-solvent 4-Me-2Pentanone): No XRPD -
- Results of Anti-Solvent Addition Studies (solvent Acetone, anti-solvent DEE): Form II
- Results of Anti-Solvent Addition Studies (solvent Acetone, anti-solvent T-Butyl Methyl Ether): Form I
- Results of Anti-Solvent Addition Studies (solvent Acetone, anti-solvent Water): Form V
- Results of Anti-Solvent Addition Studies [3]: Form II
- Results of Vapor Diffusion Studies [3]: Form I +
- Results of Anti-Solvent Addition Studies [4]: Form I
- Results of Vapor Diffusion Studies [4]: Form VIII
- Results of Anti-Solvent Addition Studies [5]: Form I
- Results of Vapor Diffusion Studies [5]: Form I
- Results of Anti-Solvent Addition Studies [6]: Form IV
- Results of Vapor Diffusion Studies [6]: Form I +
- Results of Anti-Solvent Addition Studies (solvent DCM, anti-solvent DEE): Form II
- Results of Vapor Diffusion Studies (solvent DCM, anti-solvent DEE): Form IV
- Results of Anti-Solvent Addition Studies [7]: Form I
- Results of Vapor Diffusion Studies [7]: Form I +
- Results of Anti-Solvent Addition Studies (solvent DMF, anti-solvent 4-Me-2Pentanone): No XRPD -
- Results of Anti-Solvent Addition Studies (solvent DMF, anti-solvent DEE): Form VIII
- Results of Anti-Solvent Addition Studies (solvent DMF, anti-solvent T-Butyl Methyl Ether): Form II
- Results of Anti-Solvent Addition Studies (solvent DMF, anti-solvent Water): Form II
- Results of Anti-Solvent Addition Studies (solvent DMSO, anti-solvent T-Butyl Methyl Ether): Form IV
- Results of Anti-Solvent Addition Studies [8]: Amorphous
- Results of Vapor Diffusion Studies [8]: Form IV +
- Results of Anti-Solvent Addition Studies [9]: Form IV +
- Results of Vapor Diffusion Studies [9]: Form IV
- Results of Anti-Solvent Addition Studies [10]: Form IV
- Results of Vapor Diffusion Studies [10]: Form IV
- Results of Anti-Solvent Addition Studies [11]: Form I
- Results of Vapor Diffusion Studies [11]: Form IV
- Results of Anti-Solvent Addition Studies [12]: No XRPD -
- Results of Vapor Diffusion Studies [12]: No XRPD -
- Results of Anti-Solvent Addition Studies (solvent EtOH, anti-solvent DEE): Form IV
- Results of Vapor Diffusion Studies (solvent EtOH, anti-solvent DEE): Form IV
- Results of Anti-Solvent Addition Studies [13]: Form IV
- Results of Vapor Diffusion Studies [13]: Form IV
- Results of Anti-Solvent Addition Studies [14]: Form IV +
- Results of Vapor Diffusion Studies [14]: Form IV +
- Results of Anti-Solvent Addition Studies [15]: No XRPD -
- Results of Vapor Diffusion Studies [15]: Form IV
- Results of Anti-Solvent Addition Studies (solvent IPA, anti-solvent DEE): Form IV
- Results of Vapor Diffusion Studies (solvent IPA, anti-solvent DEE): Form IV
- Results of Anti-Solvent Addition Studies [16]: Form IV
- Results of Vapor Diffusion Studies [16]: Form IV +
- Results of Anti-Solvent Addition Studies (solvent IPA, anti-solvent Water): Form IV +
- Results of Anti-Solvent Addition Studies [17]: No XRPD -
- Results of Vapor Diffusion Studies [17]: No XRPD -
- Results of Anti-Solvent Addition Studies (solvent MeOH, anti-solvent DEE): Form II
- Results of Anti-Solvent Addition Studies [18]: Form II
- Results of Vapor Diffusion Studies [18]: Form II
- Results of Anti-Solvent Addition Studies [19]: Form II
- Results of Vapor Diffusion Studies [19]: Form II
- Results of Anti-Solvent Addition Studies [20]: Form I
- Results of Vapor Diffusion Studies [20]: Form II
- Results of Anti-Solvent Addition Studies (solvent THF, anti-solvent DEE): Form II
- Results of Vapor Diffusion Studies (solvent THF, anti-solvent DEE): Form IV
- Results of Anti-Solvent Addition Studies [21]: Form I
- Results of Vapor Diffusion Studies [21]: Form VIII
- Results of Anti-Solvent Addition Studies [22]: Form V
- Results of Vapor Diffusion Studies [22]: Form V
